Laboratory results reported in patent publication US9012475B2, “Method for enhancing anti-tumor effect of a microtubule-targeting drug, and a method for treatment of tumor” (Taiho Pharmaceutical Co., Ltd., priority 2013, dated 2015).
“Also recorded” adds a separate entry of the source. Read-outs that look alike come from different tables or passages of the source.

Experiments:
[1] = then 24 hours later MK-5108 orally twice per day over 2 days; cited from earlier work
[2] = Evaluation of oral absorption property; assay type: in vivo, BALE/cA mice; details: oral administration in 0.5% HPMC, plasma 0.5-6 hours, LCMS
Protocol: A test compound was suspended or dissolved in 0.5% HPMC and orally administered to BALE/cA mice. At the time points of 0.5, 1, 2, 4 and 6 hours after oral administration, blood was sampled from the back of the eye to obtain blood plasma. The concentration of the compound in the obtained blood plasma was measured by LCMS and evaluated for oral absorption property.

human Aurora A = human Aurora A (Homo sapiens (Human), UniProt O14965); assay: Measurement of Aurora A inhibitory activity (IMAP fluorescence polarization kinase assay); assay type: biochemical; details: ATP 5 μM, 25° C., 50 minutes
Protocol: (§1) The inhibitory activities of a test compound against Aurora A and Aurora B were measured according to the following method.
Complementary DNA of human Aurora A was fused with a histidine tag at the amino terminal, inserted into an expression vector and highly expressed in Escherichia coli BL21-CodonPlus (DE3)-RIL strain. After Escherichia coli was recovered and lysed, human Aurora A protein fused with a histidine tag was allowed to bind to a nickel chelate column and eluted by imidazole from the column. An active fraction was desalted by a desalting column to obtain purified enzyme.
In measuring inhibitory activity of the compound, first, the test compound was serially diluted by dimethylsulfoxide (DMSO). […] To the mixture, IMAP (registered trade mark) Progressive Binding Reagent diluted 500× with IMAP (registered trade mark) Progressive Binding Buffer A (manufactured by Molecular Devices) was added to terminate the kinase reaction. […] Based on the obtained fluorescence polarization degree, the amount of phosphorylation reaction was obtained.

[3] = tested on: human-derived lung cancer cell strain NCI-H460 (H460); assay: Schedule of administration in combination with docetaxel (Example 2 (2)); assay type: in vivo, nude mice
Protocol: The study was performed according to the method in Example 1, except that docetaxel was used in place of paclitaxel. Furthermore, administration of Compound 1 was initiated from the administration day of docetaxel. Group 1 was defined as a control group. Docetaxel was dissolved in anhydrous ethanol and Tween 80 and thereafter diluted with 5% glucose injection liquid and intravenously administered in a dose of 30 mg/kg twice, i.e., on day 1 and day 8 (Group 2 and 4). In Group 3 and 4, Compound 1 was orally administered twice per day in a dose of 60 mg/kg, from the administration day of docetaxel for 4 days and from day 8 of docetaxel administration for 4 days.
In Group 3 and 4, the dose of Compound 1 per day was 120 mg/kg/day. Note that, in FIG. 2 (B), Group 1 is represented by Control, Group 2 by Docetaxel alone, Group 3 by Compound 1 alone and Group 4 by Combo (4 days).

[4] = tested on: human-derived lung cancer cell strain NCI-H460 (H460); assay: Schedule of administration in combination with paclitaxel, NCI-H460 subcutaneous graft; assay type: in vivo
Protocol: The study was performed according to the method in Example 1. Cells (1×10^7) of human-derived lung cancer cell strain NCI-H460 (H460) were subcutaneously grafted to right abdomens of nude mice. […] Group 1 was defined as a control group, Group 2 and 3 were defined as a paclitaxel single administration group and Compound 1 single administration group, respectively. Group 4 and 5 were defined as an administration group in combination with paclitaxel and Compound 1. Paclitaxel was intravenously administered in a dose of 60 mg/kg twice, i.e., day 1 and day 8 (Group 2, 4 and 5). In Group 3 and 5, Compound 1 was orally administered twice per day in a dose of 60 mg/kg, for 4 days from the next day of paclitaxel administration and for 4 days from day 9 of paclitaxel administration. In Group 4, Compound 1 was orally administered twice per day in a dose of 60 mg/kg from the next day of paclitaxel administration for 2 days and from day 9 for 2 days. In Group 3, 4 and 5, the dose per day of Compound 1 was 120 mg/kg/day. […]
Furthermore, the body weights of mice were measured with time and a body weight change rate (BWC) was computationally obtained according to the following expression. […]

[5] = tested on: human-derived uterus cancer cell strain HeLa-luc; details: for number of CR cases: 5 rats
Source text: Cells (1×10^7) of human-derived uterus cancer cell strain HeLa-luc (manufactured by PerkinElmer Co., Ltd.) having a luciferase gene introduced therein were subcutaneously grafted to the right abdomens of nude rats. At the time the volume of a tumor developed from grafted cells reached about 200 mm^3, the rats were divided into groups each consisting of 5 rats according to stratified randomization such that each group had almost the same tumor volume. […] To Group 2 and 3, paclitaxel was administered and, on the next day, Compound 1 (30 mg/kg) was orally administered twice per day for one day or 4 days (sequential administration, see FIG. 1 (A), Sequential treatment). To the rats of Group 4 and 5, paclitaxel was administered and, on the same day, Compound 1 (30 mg/kg) was orally administered twice per day for 2 days or 4 days (concurrent administration, see FIG. 1 (B), Concurrent treatment). Compound 1 was suspended or dissolved in 0.5% (w/v) hydroxypropyl methyl cellulose (HPMC). Paclitaxel was dissolved in Cremophor EL and anhydrous ethanol, diluted with physiological saline so as to obtain a predetermined concentration and put in use.
The presence or absence of a therapeutic effect was determined by measuring the major axis and minor axis of a tumor with time and obtaining a tumor volume (TV), relative tumor volume (RTV) and T/C (%) value (average relative tumor volume ratio of the treatment group to the control group) on day 10 after initiation of administration according to the following expressions. Tumor volume (TV)={(major axis)×(minor axis)^2}/2 Relative tumor volume (RTVn) on measurement day (n)=TVn/TV1 T/C(%)={(average RTVn of treatment group)/(average RTVn of control group)}×100
TV1 represents tumor volume at the administration initiation time
Furthermore, an individual in which a tumor disappeared was specified as CR (complete remission/complete response) and the number of cases was obtained.

human Aurora B = human Aurora B (Homo sapiens (Human), UniProt Q96GD4); assay: Measurement of Aurora B kinase activity; assay type: biochemical; details: ATP 40 μM, 60 minutes
Protocol: as §1
The concentration of the compound at which 50% of the phosphorylation reaction was suppressed was defined as IC50 value (nM).

Sequence of human Aurora B (Q96GD4 whole entry): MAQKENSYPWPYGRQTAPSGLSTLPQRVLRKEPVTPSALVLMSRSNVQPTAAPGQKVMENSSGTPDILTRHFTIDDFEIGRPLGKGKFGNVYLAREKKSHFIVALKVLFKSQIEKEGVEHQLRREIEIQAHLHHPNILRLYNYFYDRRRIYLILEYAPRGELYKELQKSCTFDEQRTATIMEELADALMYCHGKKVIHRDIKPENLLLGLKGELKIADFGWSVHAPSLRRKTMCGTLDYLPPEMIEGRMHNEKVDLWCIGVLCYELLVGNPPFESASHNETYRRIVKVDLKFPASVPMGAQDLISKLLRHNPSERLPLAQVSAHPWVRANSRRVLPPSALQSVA
Sequence of human Aurora B (Q9NQS7 803-916 partner): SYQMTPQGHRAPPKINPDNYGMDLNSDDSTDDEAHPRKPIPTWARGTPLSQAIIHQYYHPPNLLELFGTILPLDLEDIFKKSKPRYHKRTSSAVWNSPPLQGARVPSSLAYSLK
Sequence of human Aurora A (O14965 whole entry): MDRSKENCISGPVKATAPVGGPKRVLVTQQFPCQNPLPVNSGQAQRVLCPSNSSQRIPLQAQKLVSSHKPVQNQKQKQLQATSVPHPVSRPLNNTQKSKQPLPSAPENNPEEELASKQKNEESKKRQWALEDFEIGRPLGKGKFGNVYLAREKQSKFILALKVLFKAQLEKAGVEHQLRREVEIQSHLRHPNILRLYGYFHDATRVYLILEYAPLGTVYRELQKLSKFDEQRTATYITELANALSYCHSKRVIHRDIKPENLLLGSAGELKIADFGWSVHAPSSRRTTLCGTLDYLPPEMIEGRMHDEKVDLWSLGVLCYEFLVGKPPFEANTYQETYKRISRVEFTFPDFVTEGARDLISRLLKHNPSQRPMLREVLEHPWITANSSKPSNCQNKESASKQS

Row | Structure (SMILES) | antitumor effect in combination with docetaxel [1] | oral absorption property (concentration in blood plasma) [2] | IC50 (human Aurora A) [nM] | toxicity / side effect ([3]; Group 4: docetaxel 30 mg/kg iv plus Compound 1 60 mg/kg po bid for 4 days per cycle) | antitumor effect (tumor volume), Combo (4 days) ([3]; docetaxel 30 mg/kg iv day 1 and 8, Compound 1 60 mg/kg po bid for 4 days from day 1 and day 8) | toxicity / side effect ([4]; Group 4 and 5: paclitaxel 60 mg/kg iv plus Compound 1 60 mg/kg po bid for 2 or 4 days per cycle) | tumor volume, Combo (4 days) versus Combo (2 days) ([4]; paclitaxel 60 mg/kg iv day 1 and 8, Compound 1 60 mg/kg po bid for 4 days (Group 5) vs 2 days (Group 4) per 7-day cycle) | number of CR cases ([5]; Group 2: paclitaxel 10 mg/kg iv, from next day Compound 1 30 mg/kg po twice per day for one day (sequential)) | number of CR cases ([5]; Group 3: paclitaxel 10 mg/kg iv, from next day Compound 1 30 mg/kg po twice per day for 4 days (sequential)) | toxicity / side effect ([5]; Group 3 and 5: paclitaxel 10 mg/kg iv plus Compound 1 30 mg/kg po bid for 4 days) | number of CR cases ([5]; Group 4: paclitaxel 10 mg/kg iv, from same day Compound 1 30 mg/kg po twice per day for 2 days (concurrent)) | number of CR cases ([5]; Group 5: paclitaxel 10 mg/kg iv, from same day Compound 1 30 mg/kg po twice per day for 4 days (concurrent)) | IC50 (human Aurora B) [nM]
1 | O=C(O)[C@]1(Cc2cccc(Nc3nccs3)n2)CC[C@@H](Oc2cccc(Cl)c2F)CC1 [MK-5108] | enhancement of an antitumor effect is confirmed |  |  |  |  |  |  |  |  |  |  |  | 
2 | Cc1cc(Nc2nc(CC3(C(=O)O)CCN(C(=O)c4cccc(Cl)c4Cl)CC3)ccc2F)n[nH]1 [Production Example 1, 1-(2,3-dichlorobenzoyl)-4-((5-fluoro-6-(5-methyl-1H-pyrazol-3-ylamino)pyridin-2-yl)methyl)piperidine-4-carboxylic acid] |  | satisfactory oral absorption property | 0.4 | no significant toxicity such as death was observed | an antitumor effect is exerted | no significant toxicity such as death was observed | smaller than that of Group 4; also recorded: stronger antitumor enhancing effect | no CR cases | 2 | no serious toxicity such as death was observed | one | 4 | 140
